The target of one test is T1, Octameric M2 MspA (Mycolicibacterium smegmatis, UniProt A0QR29, D117N/D118N/D120N/D145R/D161R/E166K).
T1 construct: made in house; host or cells: E. coli BL21 (DE3)
Put plainly: Alditol sensing using M2 MspA nanopore (control without PBA). It is filed as binding, Mycobacterium smegmatis. Conditions: alditol 4 mM in cis, +100 mV. The method, then:
FIG. 87: Alditol sensing using M2 MspA nanopore. Glycerol, erythritol, xylitol and sorbitol were used as the representative alditols with different number of hydroxyl groups. All measurements were carried out as described in Methods 1 in Example 3. Octameric M2 MspA was applied as the nanopore sensor. A transmembrane potential of +100 m V was continually applied. Each alditol was added to cis with a final concentration of 4 mM.
The octameric M2 MspA was used as a control in FIG. 87. It was expressed with E. coli BL21 (DE3) and purified by nickel affinity chromatography as reported previously.^1

In test [1] the target is T2, MspA-PBA (boronic acid appended hetero-octameric MspA) (Mycolicibacterium smegmatis, UniProt A0QR29, D117C/D118N/D120N/D145R/D161R/E166K).
T2 construct: H6 (hexa-histidine) (C); 3-(maleimide) phenylboronic acid (MPBA) adduct on the thiol of Cys90; made in house; host or cells: E. coli BL21 (DE3) pLysS, co-expression from pETDuet-1
Put plainly: Single channel recording of alditol binding to MspA-PBA nanopore (standards and zero-sugar drinks). Conditions: N=3; for ratio (mean current percentage blockage) / std (standard deviation of the blocking level): alditol 4 mM (glycerol 8 mM) in cis. The arrangement: species or system Mycobacterium smegmatis. The method, then: FIG. 88: Definition of event parameters. (a) A representative electrophysiology trace containing nanopore events. Xylitol was treated as the model analyte. I0 is the open pore current and Ib is the residual current caused by alditol blockade. ratio is derived from (I0−Ib)/I0, which is defined as the percentage blockage. τoff represents the dwell time of an event. τon represents the inter-event interval. std is the standard deviation value of the blockage level. (b-c) The histogram plot of ratio (b) and std (c) acquired from a continually recorded trace. The histograms were Gaussian fitted and the peaks of the fitting results respectively represent the mean value of ratio and the mean std. (d-e) The histogram plots of τoff (d) and τon (e) acquired from a continually recorded trace. The histogram plots were respectively fit to a single exponential curve, according to the equation y=a*exp (−x/τ), from which the mean event dwell time (τoff) (d) and the mean inter-event interval (τon) (e) were respectively derived. If not otherwise stated, all results in this manuscript were described by event parameters defined above.
All subsequent nanopore measurements were carried out with a 1.5 M KCl buffer (1.5 M KCl, 10 mM 3-(N-Morpholino) propanesulfonic acid (MOPS), pH 7.0) and a +100 m V continually applied potential (Method 1 in Example 3). 13 types of alditols, which were derived from the reduction of the carbonyl group of C3-C6 monoaldoses were treated as model polyols (FIGS. 77b and 83). The PBA of MspA-PBA can complex with a polyol, forming a cyclic ester at the pore constriction and resulting in the corresponding nanopore event being reported. All alditols were added to the cis side of the pore and the final concentration of alditols was set at 4 mM with the exception of glycerol, which was set at 8 mM instead. […] In addition, single molecule sensing of glycerol and D-Sorbitol by MspA-PBA are as shown in FIGS. 104 and 105, respectively.
To describe the sensing events quantitatively, event parameters such as the open-pore current (I0), the current blockade (Ib), the percentage blockage (ratio), the event dwell time (τoff), the inter-event intervals (τon) and the standard deviation value of the blockage level (std) were defined as described in FIG. 88. The percentage blockage, also referred to for simplicity as ratio, is defined as (I0−Ib)/I0.
Quantitatively, the reciprocal of the mean inter-event interval (1/τon, N=3) is linearly correlated with the alditol concentration, consistent with a bimolecular model. The mean event dwell time τoff (N=3) however is independent of the alditol concentration, and this is consistent with a unimolecular dissociation mechanism (FIGS. 89e-92e, Table 18). […] The binding constant for borate cyclic ester formation for alditols increases as the number of hydroxyl groups in the alditol increases (FIG. 77c and Table 18), consistent with conclusions drawn previously from the corresponding NMR measurements.^52 Nanopore measurements were also performed with different applied voltages. […] This is expected because all alditols tested in this paper are electrically neutral and the formation of a borate ester is independent of the local electric field.
All nanopore measurements were performed as described previously.^1,2 Briefly, the measurement device has two custom chambers separated by a thick Teflon film containing a drilled (˜100 μm) aperture. Before the measurement, the aperture was first treated with 0.5% (v/v) hexadecane in pentane and set for pentane evaporation. Electrolyte buffer (500 μL) was added to the electrically grounded chamber (cis chamber) and the opposing chamber (trans chamber). All nanopore measurements in this paper were performed with a 1.5 M KCl buffer (1.5 M KCl, 10 mM MOPS, pH 7.0). Two custom-made Ag/AgCl electrodes were placed in both chambers in contact with the buffers and the patch-clamp amplifier to form a closed circuit. […]

Setting [2] is: voltage series: +60 mV, glycerol 12 mM, other alditols 8 mM.
[3] abbreviates: voltage series: +80 mV, glycerol 12 mM, other alditols 8 mM.
Setting [4] is: voltage series: +100 mV, glycerol 12 mM, other alditols 8 mM.
Setting [5] is: voltage series: +120 mV, glycerol 12 mM, other alditols 8 mM.

T2 sequence (A0QR29 other isoform, or with tags, fused parts or gaps D117N/D118N/D120N/D145R/D161R/E166K): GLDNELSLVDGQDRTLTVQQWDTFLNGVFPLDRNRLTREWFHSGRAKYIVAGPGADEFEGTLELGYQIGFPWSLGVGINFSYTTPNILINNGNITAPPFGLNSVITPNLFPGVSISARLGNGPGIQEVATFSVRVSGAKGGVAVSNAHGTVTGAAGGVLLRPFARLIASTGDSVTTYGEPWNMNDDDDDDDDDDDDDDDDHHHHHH
T2 sequence (A0QR29 other isoform, or with tags, fused parts or gaps D117C/D118N/D120N/D145R/D161R/E166K): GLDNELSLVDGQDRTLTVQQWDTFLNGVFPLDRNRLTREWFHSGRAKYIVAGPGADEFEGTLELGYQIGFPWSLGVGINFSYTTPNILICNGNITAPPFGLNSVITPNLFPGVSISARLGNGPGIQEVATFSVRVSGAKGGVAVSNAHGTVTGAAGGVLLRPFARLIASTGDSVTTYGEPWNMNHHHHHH
T1 sequence (A0QR29 28-211 D117N/D118N/D120N/D145R/D161R/E166K): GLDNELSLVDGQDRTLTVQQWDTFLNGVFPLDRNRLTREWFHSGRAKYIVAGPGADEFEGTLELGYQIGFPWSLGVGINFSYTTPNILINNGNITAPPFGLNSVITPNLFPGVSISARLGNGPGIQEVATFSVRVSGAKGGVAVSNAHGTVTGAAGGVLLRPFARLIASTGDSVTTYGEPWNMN

With `OC[C@@H](O)[C@@H](O)CO` [erythritol], on Octameric M2 MspA, the “binding events with M2 MspA” value was “No binding events were observed”. Moreover, the “ratio (mean current percentage blockage)” value in test [1] (+100 mV) is 22.00±0.17%. Besides, in test [1] (+100 mV), the “std (standard deviation of the blocking level)” value was 3.24±0.18 pA. Further, the 1/τon was 0.42 ± 0.05 s⁻¹ in test [1] (alditol 2 mM in cis, +100 mV); 0.80 ± 0.05 s⁻¹ in test [1] (alditol 4 mM in cis, +100 mV); 1.16 ± 0.03 s⁻¹ in test [1] (alditol 6 mM in cis, +100 mV); 1.59 ± 0.09 s⁻¹ in test [1] (alditol 8 mM in cis, +100 mV); 1.62 ± 0.10 s⁻¹ in test [1] (setting [2]); 1.65 ± 0.11 s⁻¹ in test [1] (setting [3]). Moreover, the 1/τon in test [1] (setting [4]) was 1.64 ± 0.10 s⁻¹; in test [1] (setting [5]), 1.65 ± 0.06 s⁻¹. Further, the τoff was 42.4 ± 0.5 ms in test [1] (alditol 2 mM in cis, +100 mV); 43.4 ± 3.2 ms in test [1] (alditol 4 mM in cis, +100 mV); 42.3 ± 2.3 ms in test [1] (alditol 6 mM in cis, +100 mV); 44.2 ± 1.5 ms in test [1] (alditol 8 mM in cis, +100 mV).

Turning to `OCC(O)CO` [glycerol], at Octameric M2 MspA, the “binding events with M2 MspA” value is given as “No binding events were observed”. Also, the “ratio (mean current percentage blockage)” value in test [1] (+100 mV) was 17.07 ± 0.15%. Further, in test [1] (+100 mV), the “std (standard deviation of the blocking level)” value worked out at 2.57 ± 0.07 pA. For the same compound, the 1/τon worked out at 1.3 ± 0.2 s⁻¹ in test [1] (alditol 6 mM in cis, +100 mV); 1.7 ± 0.2 s⁻¹ in test [1] (alditol 8 mM in cis, +100 mV); 2.1 ± 0.3 s⁻¹ in test [1] (alditol 10 mM in cis, +100 mV); 2.5 ± 0.3 s⁻¹ in test [1] (alditol 12 mM in cis, +100 mV); 2.2 ± 0.2 s⁻¹ in test [1] (setting [2]); 2.35 ± 0.14 s⁻¹ in test [1] (setting [3]). The values for the 1/τon in test [1] (setting [4]) and in test [1] (setting [5]) were 2.4 ± 0.3 s⁻¹ and 2.4 ± 0.2 s⁻¹, respectively. For the same compound, the τoff in test [1] (alditol 6 mM in cis, +100 mV) is recorded as 10.5 ± 0.8 ms; in test [1] (alditol 8 mM in cis, +100 mV), 10.3 ± 0.4 ms; in test [1] (alditol 10 mM in cis, +100 mV), 10.5 ± 0.7 ms; in test [1] (alditol 12 mM in cis, +100 mV), 10.4 ± 0.5 ms.

For the compound `OC[C@@H](O)[C@@H](O)[C@H](O)[C@@H](O)CO` [D-sorbitol], at Octameric M2 MspA, the “binding events with M2 MspA” value is given as “No binding events were observed”. Besides, in test [1] (+100 mV), the “ratio (mean current percentage blockage)” value was determined as 30.43 ± 0.06%. Further, the “std (standard deviation of the blocking level)” value in test [1] (+100 mV) is 5.30 ± 0.17 pA. Also, the 1/τon was found to be 0.40 ± 0.04 s⁻¹ in test [1] (alditol 2 mM in cis, +100 mV); 0.81 ± 0.09 s⁻¹ in test [1] (alditol 4 mM in cis, +100 mV); 1.2 ± 0.2 s⁻¹ in test [1] (alditol 6 mM in cis, +100 mV); 1.7 ± 0.1 s⁻¹ in test [1] (alditol 8 mM in cis, +100 mV); 1.67 ± 0.03 s⁻¹ in test [1] (setting [2]); 1.60 ± 0.06 s⁻¹ in test [1] (setting [3]). Moreover, the 1/τon was 1.70 ± 0.06 s⁻¹ in test [1] (setting [4]) and 1.70 ± 0.05 s⁻¹ in test [1] (setting [5]). In addition, the τoff in test [1] (alditol 2 mM in cis, +100 mV) was 2100 ± 300 ms; in test [1] (alditol 4 mM in cis, +100 mV), 2110 ± 120 ms; in test [1] (alditol 6 mM in cis, +100 mV), 2200 ± 200 ms; in test [1] (alditol 8 mM in cis, +100 mV), 2200 ± 300 ms.

Source of the values: patent US20240418701A1, “SINGLE MOLECULE IDEN[…] A REACTIVE HETERO-NANOPORE” (priority 2021, published 2024).
